This experiment concerns P. falciparum 3D7 growth, pLDH absorbance. The experiment in a line: P. falciparum 3D7 growth inhibition, dose response, strain 3D7 (AID 2305).

For `COc1cc(-n2cnc3cc(-c4ccc([N+](=O)[O-])cc4)sc3c2=O)ccc1OCCN1CCCC1`, the IC50 stood at 780 nM. For the compound `O=C(Nc1ccc(-c2nc3ccccc3[nH]2)cc1)c1cccc([N+](=O)[O-])c1`, the IC50 is 220 nM. The result for `COc1ccc(S(=O)(=O)N2CCC(NS(=O)(=O)c3ccc(F)cc3)CC2)cc1` reads 1330 nM; that for `NC1=NC(=O)C(=Cc2cn(-c3ccccc3)nc2-c2cccc(S(=O)(=O)N3CCCC3)c2)S1`, 1140 nM; that for `O=C(c1ccco1)N1CCN(c2ccc([N+](=O)[O-])c(NC3CC3)c2)CC1`, 750 nM. `Cc1ncccc1C(=O)Nc1cccc(-c2cccc(-c3nc4ccc(C(F)(F)F)cc4[nH]3)c2)c1` had an IC50 of 600 nM.

In the case of `CCC(C)OC(=O)C1=C(C)NC2=C(C(=O)CC(c3ccc(OC)c(OC)c3)C2)C1c1cccc(O)c1` (stereo not drawn), the IC50 worked out at 190 nM. For `O=C(NCc1ccc(F)cc1)Nc1ccc(-c2cccc(-c3nc4ccc(C(F)(F)F)cc4[nH]3)c2)cc1` the value was 950 nM; for `O=C(NCCCN1CCCC1=O)c1cnc(N2CCC(Oc3ccccc3)CC2)c(Cl)c1`, 300 nM; for `CC(=O)Nc1ccc(OCCN(CC(C)(C)C)c2ccc(C#N)c(C(F)(F)F)c2)c(Cl)c1`, 490 nM. `Cc1cccc2[nH]c(-c3cccc(-c4ccc(NC(=O)c5cnn6cccnc56)cc4)c3)nc12`: the IC50 turned out to be 210 nM.

`CS(=O)(=O)c1ccc(-c2cncc(Nc3cccc([N+](=O)[O-])c3)c2)cc1` came in with an IC50 of 770 nM. The result for `Cc1ccc(C)c2sc(N(CCCn3ccnc3)C(=O)c3ccco3)nc12` reads 870 nM; that for `O=C(CSc1nc2ccc([N+](=O)[O-])cc2s1)Nc1ccccc1-c1ccccc1`, 1170 nM. In turn, `COc1cccc2cc(C(=O)N[C@@H](CC(C)C)C(=O)N[C@H](/C=N/N3CCCC3=O)Cc3ccccc3)oc12` gave an IC50 of 560 nM. For `c1ccc(Oc2ccc(Nc3ccnc4cc(-c5ccc(CNCCN6CCOCC6)o5)ccc34)cc2)cc1` the value was 440 nM; for `CCN(CC)CCN(Cc1ccc(-c2ccc(C(F)(F)F)cc2)cc1)C(=O)Cn1c(SCc2ccc(F)cc2)cc(=O)c2ccccc21`, 750 nM. Compound `COc1c(C2CCN(CCN3CCC(NC(=O)c4ccc(-c5ccc(C(F)(F)F)cc5)cc4)CC3)CC2)ccc2c1CCCC2` showed an IC50 of 1360 nM.

`Cc1cc2nc(-c3ccc(SCC(=O)Nc4ccc5c(c4)OCCO5)nc3)[nH]c2cc1C` came in with an IC50 of 990 nM. For the compound `CN1CCC(N2CCN(Cc3ccc(-c4ccc(-c5nc6ccccc6[nH]5)s4)cc3)CC2)CC1`, the IC50 came to 140 nM.

For `COc1cc2sc(=NC(=O)c3cccc([N+](=O)[O-])c3)n(C)c2cc1OC`, the IC50 came to 720 nM. For `CCOc1cc(OCC)c2ccccc2c1CNCCCCCCNCc1c(OCC)cc(OCC)c2ccccc12` the value was 310 nM; for `CSC1=NC(=Nc2c(C)cccc2C)C2(CCC(C(C)(C)C)CC2)N1c1ccc(O)cc1` (stereo not drawn), 250 nM. Take `CCCCOc1ccc(CNCCCCCCNCc2ccc(OCCCC)c3ccccc23)c2ccccc12`: the IC50 stood at 1130 nM. The compound `CS(=O)(=O)c1ccc(Nc2ncc(-c3ccc(S(C)(=O)=O)cc3)c(OCC(F)(F)F)n2)cc1` displayed an IC50 of 400 nM.

`O=C(Nc1ccc(F)c(F)c1)c1ccc(CN2CCCN(Cc3cccc(O)c3)CC2)cc1`: the IC50 was 840 nM. `O=C(NCCc1ccccc1)N(Cc1cccc(-c2ccc(CNCCc3ccccc3)cc2)c1)C1CCN(Cc2ccccc2)CC1` displayed a concentration for half-maximal inhibition (IC50) of 610 nM. In turn, `CCOC(=O)c1cnc2c(C(F)(F)F)cccc2c1Nc1ccc(O)cc1` yielded an IC50 of 630 nM.

Compound `COc1ccc(-c2cccc(NC(=O)c3ccc(Cl)cc3)c2)cc1CN1CCCN(C)CC1` registered an IC50 of 390 nM. For `COc1ccc(CNC2CCCC2)cc1-c1ccc(S(=O)(=O)NCCN2CCCC2)s1` the value was 800 nM; for `CC1(C)C(=O)Nc2ccc3c(c21)CC1SC(=O)NN=C31` (stereo not drawn), 1490 nM.

`CN1CCN(c2ccc3nc(-c4ccc(Cc5cc(Cl)ccc5OCc5ccccc5)o4)[nH]c3c2)CC1` showed an IC50 of 810 nM. The result for `CN(CC(=O)Nc1ccc(F)cc1)C(=O)c1ccc(-c2ccc(F)cc2)o1` reads 930 nM.

Broadly, the IC50 is the concentration needed to halve the response being measured.
